Measurements taken from paper PMC8308625, “Preclinical Studies in Anti-Trypanosomatidae Drug Development” (Pharmaceuticals, 2021).
Like-named read-outs stand apart in the source and are kept apart here.

Legend:
T. brucei = test: Growth inhibition of T. brucei bloodstream form trypomastigotes (resazurin); assay type: cell-based, Trypanosoma brucei brucei; details: for EC50: Trypanosoma brucei, read-out: EC50 ± SD T. brucei
Procedure: Compounds were dissolved in dimethylsulfoxide (DMSO).

fibroblasts (NCTC929) = test: Cytotoxicity in fibroblasts; assay type: cell-based; details: NCTC-929, read-out: EC50 ± SD Fibroblasts
Text: Table 5 Cytotoxicity and selectivity index of reference drugs and selected molecules. | column: EC50 ± SD (µM) ^a / Fibroblasts

[1] = tested on: L. infantum veterinary isolate (MCAN_UY_2015_gPL8); test: Growth inhibition of L. infantum veterinary isolate promastigotes (resazurin); details: for Selectivity Index MΦ/Lin–Vet: EC50 mammalian cell line/EC50 L. infantum veterinary isolate; for EC50: Leishmania infantum, read-out: EC50 ± SD Lin–Vet
L. braziliensis = details: read-out: EC50 ± SD L. brazils, cited from earlier work
L. infantum amastigote = test: Single dose study in the amastigote form of L. infantum; assay type: cell-based; details: Leishmania infantum, single dose 10 µM
[2] = parameters: method as in PMID 24749923, PMID 26492824, PMID 25512408; details: ref [13],[14],[15]; cited from earlier work
Cruzipain = details: mechanism of action; ref [13],[14],[15]; cited from earlier work
T. cruzi [3] = tested on: T. cruzi; parameters: method as in PMID 31652542; details: mice, ref [16], cited from earlier work
human macrophages = test: Cytotoxicity in human macrophages; assay type: cell-based; details: 50 µM
Procedure: Differentiation of THP-1 to produce macrophage-like cells was carried out using phorbol 12-myristate-13-acetate (Sigma-Aldrich, Deisenhofen, Germany).
All assays were performed in triplicate.

L. amazonensis [4] = test: Murine model of cutaneous Leishmaniasis; details: BALB/c mice, oral
Procedure: For the in vivo model of cutaneous disease, 1 × 10^7 amastigote parasites of L. amazonensis PH8 were inoculated in the upper part of the left paw of the mice. […] The mice were sacrificed 30 days post-infection. The antiparasitic effect was evaluated by two methods: the weekly evolution of the diameter of the infected paw throughout the experiment (Figure 2C) and the quantification of the parasite load in the infected area at the end of the experiment (Figure 2A).
Golden hamsters (Mesocritus auratus) were used to maintain L. amazonensis infections with the parasites passage every 6 to 8 weeks. BALB/c mice (female and male) supplied by the IFFA-CREDO, Lyon, France, and bred at the Instituto de Investigaciones en Ciencias de la Salud, Asuncion, Paraguay, were inoculated in the right hind footpad with 2 × 10^6 L. amazonensis amastigotes in 100 µL PBS obtained from donor hamsters. Disease progression was monitored by the measurement of lesion diameters for 7 to 12 weeks. […] Two days before the administration of the drug, the mice were randomly divided into groups of eight. […] The animals were euthanized two weeks after cessation of treatments to assess parasitological loads in the infected footpad. […] Following incubation at 27 °C for seven days, cultures were examined with an inverted microscope (Olympus, Tokyo, Japan) at a magnification of ×400. The number of parasites per gram in the lesion was calculated by the following equation: Parasite burden = geometric mean of the number of parasites in each duplicate/(number of microscope field counted × weight of lesion × (25,000) hemocytometer correction factor) [37]. […] Comparisons of parasite suppression in the infected footpads of the untreated and drug-treated groups were performed by Student’s t-test. One-way ANOVA (as a non-parametric statistical test) was also used on ranks.

T. cruzi [5] = details: cited from earlier work
[6] = Acute oral toxicity (up and down test); details: mice
[7] = cited from earlier work
[8] = mice, up and down test, cited from earlier work
[9] = tested on: J774.1 murine macrophages; test: Nonspecific cytotoxicity in murine macrophages (MTT); details: Mus musculus, J774.1, read-out: EC50 ± SD MΦ
Procedure: Cell viability was then assessed using the 3-(4,5-dimethylthiazol-2-yl)-2,5-diphenyltetrazolium bromide (MTT) colorimetric assay [1]. […] All assays were performed in triplicate [35].

L. amazonensis [10] = test: Growth inhibition of L. amazonensis promastigotes (resazurin); details: for Selectivity Index MΦ/L. amaz: EC50 mammalian cell line/EC50 L. amazonensis; for EC50: Leishmania amazonensis, read-out: EC50 ± SD L. amaz
human red blood cells = test: Red Blood Cell Lysis Assay; assay type: cell-based; details: 50 µM
Procedure: To assess a compound’s hemolytic activity the Red Blood Cell Lysis Assay (national blood bank) was performed. A compound-containing erythrocyte (2% (w/v)) suspension prepared in phosphate-buffered saline pH 7.4 was incubated for 24 h at 37 °C and the amount of hemoglobin released into the supernatant determined spectrophotometrically using a Varioskan TM Flash Multimode Reader (Thermo ScientificTM, MA, USA) set to a wavelength of 405 nm. The % hemolysis was determined using the follows equation: % released hemoglobin = [(A1 − A0)/(A1water)] × 100, where A1 and A0 represent the absorbance at 405 nm of the test sample at 0 and 24 h, and A1water the absorbance at 405 nm of water at 24 h. The experiments were performed by quintuplicate. […]

[11] = tested on: L. infantum reference strain (MHOM/BR/2002/LPC-RPV); test: Growth inhibition of L. infantum reference strain promastigotes (resazurin); details: for Selectivity Index MΦ/Lin–Ref: EC50 mammalian cell line/EC50 L. infantum reference strain; for EC50: Leishmania infantum, read-out: EC50 ± SD Lin–Ref
[12] = cited from earlier work; for Ames Test (mutagenicity): ref [13],[14],[15]
[13] = Liver fraction stability (cytosolic and microsomal fraction of rat hepatocytes, TLC); assay type: in vitro ADME; details: rat hepatocyte cytosolic and microsomal fractions, 37 °C
Procedure: For the determination of the stability in the different fractions, (cytosolic and microsomal of rat hepatocytes) the different proteins present in them were used. The fractions were prepared according to the previously reported protocol. […] The final concentration of the molecules in the aqueous medium was 400 µM and prepared from a stock in DMSO of 40 mM. The solutions were homogenized and incubated at 37 °C at 10 min, 30 min, 1 h, 2 h, 3 h and 4 h. (by TLC). For this, it was incubated at 37 °C in a volume of 1 mL: 2.5 µL of 30 mM Magnesium Chloride (MgCl); 2.5 µL of 40 mM Nicotinamide Adenosine Dinucleotide Phosphate (NADP+); 5 µL of 350 mM Glucose 6- Phosphate (Glu6P); 5 µL of Glucose 6- phosphate dehydrogenase (Glu6PD) 50 U/mL, 5 µL of the stock of 40 mM compounds and the volume of the Phosphate Buffer (pH = 7) must be such that cytosolic (CF) and microsomal (MF) fraction FC and FM present a final protein concentration of 0.1 mg/mL. After that, the stability of compounds 796 and 1019 in the cytosolic (FCF) and microsomal (FMF) fraction of rat hepatocytes was evaluated at different times (1–4 h). Thin-layer chromatography of ethyl acetate extracts was conducted to evaluate the presence of decomposition products. The mobile phase used for these TLCs was n-hexane: ethyl acetate (7: 3).

[14] = molecular target: T1, Triosephosphate isomerase from T. brucei (TbTIM) (Trypanosoma brucei brucei, UniProt P04789); test: TbTIM inactivation; assay type: biochemical
T1 construct: made in house; host or cells: Escherichia coli
T1 sequence (P04789 whole entry): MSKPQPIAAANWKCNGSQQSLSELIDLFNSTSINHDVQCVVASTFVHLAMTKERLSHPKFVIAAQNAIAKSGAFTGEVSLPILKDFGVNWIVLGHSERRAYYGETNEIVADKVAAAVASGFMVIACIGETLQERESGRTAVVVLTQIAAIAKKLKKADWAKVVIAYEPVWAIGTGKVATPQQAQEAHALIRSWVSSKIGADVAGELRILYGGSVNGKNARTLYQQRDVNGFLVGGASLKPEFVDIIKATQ
Procedure: (§1) Table S3. Activity of compound 796 in Triosephosphate isomerase from L. mexicana (LmTIM) […]
(§2) Expression and purification of proteins: TbTIM, LmTIM were expressed in Escherichia coli and purified as described in the literature. After purification, the enzyme, disolved in 100 mM triethanolamine, 10 mM EDTA and 1 mM dithiothreitol (pH 8), was precipitated with ammonium sulfate (75% saturation) and stored at 4 _C. Before use, extensive dialysis against 100 mM triethanolamine/10 mM EDTA (pH 7.4) was performed. Protein concentration was determined by absorbance at 280 nm (ε= 36,440 M-1cm-1) TbTIM and LmTIM. Enzymatic activity assays: Enzymatic activity was determined following the conversion of glyceraldehyde 3‐phosphate into dihydroxyacetone phosphate. The decrease in absorbance at 340 nm was followed in a multi‐cell Cary spectrophotometer at 25 °C. The reaction mixture (1 mL, pH 7.4) contained 100 mM triethanolamine, 10 mM EDTA, 0.2 mM NADH, 1 mM glyceraldehyde 3‐phosphate and 0.9 units of _‐glycerol phosphate dehydrogenase. The reaction was initiated by the addition of 5 ng/mL of the TbTIM. For the inhibition studies, TcTIM, LmTIM and TbTIM were incubated at a concentration of 5 mg/mL in a buffer containing 100 mM triethanolamine, 10 mM EDTA, pH 7.4 and 10% of DMSO at 36 _C. The mixture also contained the compounds at the indicated concentrations. Compounds were dissolved in DMSO. […]

[15] = molecular target: T2, Triosephosphate isomerase from L. mexicana (LmTIM) (Leishmania mexicana, UniProt P48499); test: LmTIM inactivation; assay type: biochemical
T2 construct: made in house; host or cells: Escherichia coli
T2 sequence (P48499 whole entry): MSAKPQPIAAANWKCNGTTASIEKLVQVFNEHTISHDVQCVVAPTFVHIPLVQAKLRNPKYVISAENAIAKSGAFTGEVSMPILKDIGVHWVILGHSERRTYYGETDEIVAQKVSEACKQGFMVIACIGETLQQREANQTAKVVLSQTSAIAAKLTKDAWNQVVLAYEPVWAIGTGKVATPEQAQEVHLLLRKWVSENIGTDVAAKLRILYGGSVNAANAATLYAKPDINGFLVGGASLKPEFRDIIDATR
Procedure: as §1, §2

in vivo = details: male, B6D2F1, mouse, po, 2000 mg/kg
[16] = molecular target: triosephosphate isomerase; details: mechanism of action; ref [13],[14],[15]; cited from earlier work
[17] = Table 4, curcuminoids, ref [14]
[18] = Table 4, curcuminoids, ref [14], read-out: EC50 ± SD T. cruzi
[19] = epimastigotes, multiple strains, ref [13],[14],[15], read-out: EC50 in vitro anti-T. cruzi, epimastigotes

With C=CCn1c(C(=O)N2CCN(C/C=C/c3ccccc3)CC2)cs\c1=N/N=C/C=C/c1ccco1 [Compound 314] the EC50 (T. brucei; Table 3, thiazolidene hydrazines) was 5 ± 1 µM, the EC50 (fibroblasts (NCTC929)) was 346 ± 9 µM and the “Selectivity Index MΦ/Lin–Vet” value [1] was 12. The EC50 [1] was 2.5 ± 1 µM, the EC50 (L. braziliensis; Table 3, thiazolidene hydrazines, ref [13],[16],[19],[23],[25]) was 4 ± 1 µM and the inhibition at 10 µM (L. infantum amastigote) was 85%. The “Stability in vitro (microsomal, plasma, other solutions)” value (“Stability in vitro” below) [2] was “High”, the IC50 (Cruzipain) was 4.3 µM and the reduction of parasitemia (T. cruzi [3]; oral, same dose as in the Leishmaniasis in vivo assay) was “more than 60%”. The survival (T. cruzi [3]; mean 60% survival in untreated group) was 100%, the “cytotoxicity in human macrophages” value (human macrophages) was “did not see any inhibition” and the “leishmanicidal activity in vivo” value (L. amazonensis [4]; half the dose of 796) was “low”. For the same compound, the EC50 (T. cruzi [5]; Table 3, thiazolidene hydrazines, ref [13],[16],[19],[23],[25], read-out: EC50 ± SD T. cruzi) was 3.1 ± 0.2 µM, the EC50 (T. cruzi [5]; amastigotes, multiple strains, ref [13],[14],[15], read-out: EC50 in vitro anti-T. cruzi, amastigotes) was 0.72 µM and the “survival in the acute toxicity model in vivo” value [6] was 100%. For the same compound, the “micronucleus test, genotoxicity” value ([7]; previous works, ref [13],[16]) was “not genotoxic”, the “Micronucleus test in mice (Genotoxicity)” value ([7]; ref [13],[14],[15]) was “No” and the “acute toxicity LD50” value ([8]; previously evaluated, ref [13],[16]) was > 2000 mg/kg of weight. For the same compound, the “Acute oral toxicity LD50” value ([8]; ref [13],[14],[15]) was “^d LD50 > 2000 mg/kg in mice”, the EC50 [9] was 30 ± 5 µM and the “Selectivity Index MΦ/L. amaz” value (L. amazonensis [10]) was 3. For the same compound, the EC50 (L. amazonensis [10]) was 12 ± 5 µM, the “cytotoxicity in human red blood cells” value (human red blood cells) was “did not see any inhibition” and the “Selectivity Index MΦ/Lin–Ref” value [11] was 23. The EC50 [11] was 1.3 ± 0.5 µM, the “AMES test, mutagenic capacity” value ([12]; previous works, ref [13],[16]) was “negative” and the “Ames Test (mutagenicity)” value [12] was “No”.

For O=C(/C=C/c1cccs1)/C=C/c1cccs1 [Compound 796], the EC50 (T. brucei; Table 4, curcuminoids) was 0.6 ± 0.1 µM, the EC50 (fibroblasts (NCTC929)) was 158 ± 5 µM and the “metabolic stability: time compound detected / degraded” value [13] was no less than 4 h. The “Selectivity Index MΦ/Lin–Vet” value [1] was 4, the EC50 [1] was 10 ± 2 µM and the inhibition at 50 µM [14] was 61%. The EC50 (L. braziliensis; [17]) was 4 ± 0.5 µM, the inhibition at 10 µM (L. infantum amastigote) was 90% and the “Media Mn/Mouse ± SD” value (male, CD-1, mouse, in vivo, 150 mg/kg) was 5 ± 1. The “Number EPMn (total polychromatic micronucleated erythrocytes in the 5 assays)” value (mice, 796 150 mg/kg oral, Cyclophosphamide intraperitoneal positive control, 5000 EPC observed) was 21, the “Stability in vitro” value [2] was “moderate” and the “cytotoxicity in human macrophages” value (human macrophages) was “did not see any inhibition”. For the same compound, the “% of suppression of the parasites” value (L. amazonensis [4]; parasite load in lesion, 796 at 203 µmol/kg, other molecules at half that dose) was “more than 50%”, the “diameter of the paw” value (L. amazonensis [4]; when treatment begins (Figure 2C)) was “begins to decrease” and the EC50 (T. cruzi [5]; [18]) was 5 ± 0.8 µM. For the same compound, the EC50 (T. cruzi [5]; [19]) was 5 µM, the “survival in the acute toxicity model in vivo” value [6] was 100% and the inhibition at 50 µM [15] was 42.5%. The EC50 [9] was 38 ± 7 µM, the “Selectivity Index MΦ/L. amaz” value (L. amazonensis [10]) was 5 and the EC50 (L. amazonensis [10]) was 8 ± 2 µM. The “cytotoxicity in human red blood cells” value (human red blood cells) was “did not see any inhibition”, the LD50 at 14 days (in vivo) was greater than 2000 mg/kg and the “Selectivity Index MΦ/Lin–Ref” value [11] was 10. For the same compound, the EC50 [11] was 4 ± 0.5 µM.

In the case of O=C1/C(=C/C=C/c2ccco2)CCC/C1=C\C=C\c1ccco1 [Compound 1019], the “trypanosomicidal effect on T. brucei” value (T. brucei) is given as “no trypanosomicidal effect”, the “growth inhibitory / trypanosomicidal effect on the L. infantum canine-derived isolate” value [1] is given as “no trypanosomicidal effect” and the EC50 (L. braziliensis; [17]) is given as 13 ± 7 µM. The “Stability in vitro” value [2] was “low”, the EC50 (T. cruzi [5]; [18]) was 0.6 ± 0.2 µM and the EC50 (T. cruzi [5]; [19]) was 0.6 µM. The EC50 (L. amazonensis [10]) was 7 ± 1 µM, the EC50 [11] was less than 0.3 µM and the IC50 [16] was 0.086 µM. For the same compound, the “Ames Test (mutagenicity)” value [12] was “no”.
